Experimental data as given in the supplement of paper PMC10307832.

Experiments:
[1] = compound: C1=CC=C2C(=C1)N=C(S2)C(C#N)C3=NC(=NC=C3)NCCC4=CN=CC=C4; test: relative viability (nuclei count vs DMSO), 5 days (fraction); higher = more cells survive
Summary of the method: (§1)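 Viability was defined as treated-well nuclei divided by vehicle-well nuclei, with the median taken over replicate plates. Cells from lung cancer lines sat overnight at 37 °C in 1536-well plates, received five √10-spaced library-drug doses by pinning on vehicle-anchored plates, and grew 5 days without medium change before one-step fixation, permeabilisation and Hoechst staining, 4× imaging and MetaXpress nuclear counts. Only plates with control CV under 25% and at least one doubling were kept.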

NVP-TAE684 = compound: COc1cc(N2CCC(N3CCN(C)CC3)CC2)ccc1Nc1ncc(Cl)c(Nc2ccccc2S(=O)(=O)C(C)C)n1 [NVP-TAE684]; test: as above
Summary of the method: as §1

Cell Line | relative viability ([1]; 0.005 µM) | relative viability ([1]; 0.01581 µM) | relative viability ([1]; 0.05 µM) | relative viability ([1]; 0.1581 µM) | relative viability ([1]; 0.5 µM) | relative viability (NVP-TAE684; 0.2 µM) | relative viability (NVP-TAE684; 0.6325 µM) | relative viability (NVP-TAE684; 2 µM)
NCI-H661 | 1.05 | 1.02 | 0.941 | 0.998 | 1.02 | 0.99 | 0.972 | 0.95
NCI-H727 | 0.904 | 0.903 | 0.832 | 1.13 | 0.78 | 0.806 | 0.91 | 0.515
NCI-H838 | 0.902 | 0.954 | 0.968 | 1.1 | 0.953 |  | 0.792 | 0.545
NCI-H1299 | 1.06 | 1.05 | 0.95 | 1.06 | 0.974 | 1.05 | 1.01 | 
NCI-H1355 | 0.934 | 0.931 | 0.986 | 1.1 | 0.912 | 0.961 | 0.921 | 0.75
NCI-H1395 | 0.876 |  | 0.922 | 1.11 | 0.995 | 1.01 | 0.777 | 0.977
NCI-H1437 | 0.901 | 0.947 | 0.988 | 1.1 | 0.966 |  | 0.957 | 0.758
NCI-H1563 | 0.778 | 0.944 | 0.899 | 0.995 | 0.946 | 0.955 | 0.95 | 
NCI-H1623 | 0.981 | 1.01 | 0.837 | 0.96 | 0.846 | 0.945 | 0.868 | 0.852
NCI-H1648 | 0.704 | 0.812 | 0.764 | 1.19 | 0.75 | 0.715 | 0.713 | 0.363
NCI-H1650 | 0.89 | 0.816 | 0.922 | 1 | 0.774 | 0.782 | 0.745 | 0.45
NCI-H1651 | 0.884 | 1.02 | 1.14 | 1.07 | 0.984 | 0.946 | 0.966 | 0.868
NCI-H1666 | 1.09 | 0.988 | 1.04 | 1.01 | 0.99 | 0.922 | 0.933 | 0.812
NCI-H1703 | 0.814 | 0.841 | 0.782 | 0.889 | 1.14 | 1.07 | 0.845 | 
NCI-H1734 | 0.787 | 0.91 | 0.963 | 1.14 | 0.871 | 0.983 | 0.901 | 0.705
NCI-H1755 | 1.03 | 1.15 | 0.985 | 1.09 | 0.99 | 1.04 | 1.04 | 0.892
NCI-H1792 |  | 0.747 | 0.924 | 1.2 | 0.693 | 0.844 | 0.708 | 0.594
NCI-H1793 | 0.716 | 0.906 | 0.852 | 1.05 | 0.925 | 0.826 | 0.875 | 0.816
NCI-H1915 | 0.925 | 1.03 | 0.969 | 1.1 | 0.94 | 1.02 | 1.02 | 0.949
NCI-H1944 | 0.914 | 0.956 | 0.958 | 1.03 | 0.951 | 1.08 | 0.939 | 0.94

Cell Line | relative viability ([1]; 0.005 µM) | relative viability ([1]; 0.01581 µM) | relative viability ([1]; 0.05 µM) | relative viability ([1]; 0.1581 µM) | relative viability ([1]; 0.5 µM) | relative viability (NVP-TAE684; 0.2 µM) | relative viability (NVP-TAE684; 0.6325 µM) | relative viability (NVP-TAE684; 2 µM)
NCI-H1975 | 0.858 | 0.912 | 1.01 | 1.1 | 0.653 | 0.974 | 0.926 | 0.608
NCI-H1993 | 0.901 | 0.882 | 0.929 | 1.04 | 0.842 | 0.813 | 0.885 | 0.703
NCI-H2009 | 0.938 | 1 | 1.04 | 1.04 | 1.02 | 0.993 | 0.936 | 0.762
NCI-H2023 | 0.887 | 1.02 | 0.889 | 1.16 | 0.935 | 1.02 | 0.756 | 0.265
NCI-H2085 | 0.928 | 0.983 | 0.977 | 1.01 | 0.998 | 0.986 |  | 0.914
NCI-H2087 | 0.993 | 1.03 | 1.03 | 1.13 | 0.981 | 1.09 |  | 0.989
NCI-H2126 | 0.912 | 0.977 | 0.946 | 1.05 | 0.864 | 0.991 | 0.959 | 0.684
NCI-H2170 | 0.894 | 0.991 | 0.949 | 1 | 0.913 | 0.995 | 0.969 | 1.04
NCI-H2228 | 0.839 | 1.12 | 0.962 | 1.17 | 0.956 | 0.632 | 0.36 | 0.29
NCI-H2342 | 0.82 | 0.978 | 0.874 | 1 | 0.938 | 0.917 | 0.849 | 0.647
NCI-H2347 | 1.11 | 1.09 | 0.995 | 1.05 | 1.02 | 0.964 | 0.932 | 0.986
NCI-H2405 | 0.981 | 0.943 | 0.962 | 0.988 | 0.981 | 1.06 | 0.869 | 0.574
NCI-H3122 | 0.958 | 0.977 | 0.98 | 1.03 | 0.991 | 0.236 | 0.164 | 0.126
PC-3 [JPC-3] | 0.85 | 0.966 | 1.01 | 1.15 | 1.07 | 1.08 | 0.945 | 0.984
PC-14 | 0.919 | 1.07 | 0.95 | 1.15 | 0.902 | 0.998 | 1.01 | 0.921
RERF-LC-KJ | 0.988 | 1.04 | 0.953 | 1.07 | 0.895 | 0.971 | 0.969 | 0.79
SK-LU-1 | 0.783 | 1.21 | 1.03 | 1.18 | 0.948 | 1.12 | 0.962 | 0.733
SK-MES-1 | 1.05 | 1.02 | 0.949 | 1.09 | 0.882 | 1.02 |  | 0.714
SW 900 | 0.899 | 0.845 | 0.885 | 1 | 0.823 | 0.96 | 0.754 | 0.776
SW 1573 | 0.855 | 1.11 | 0.792 | 1.13 | 0.978 | 0.948 | 1.02 | 0.645
